The values that follow come from patent US6087358A (priority 1997, dated 2000).

Values after ≈ are worked out from the molar mass of the structure shown. Read-outs that look alike come from different tables or passages of the source.

The subject of data set [1] is Mycobacterium bovis BCG (recombinant strain). The experiment in a line: microbe, parasite or virus in culture. The class given is cell-based. The conditions noted are these: 6 days 37° C.; for MIC: Mycobacterium tuberculosis variant bovis BCG, BCG, 144 h, read-out: MIC, column A, 3(S) compounds.
In data set [2] the test system is Cryptosporidium parvum. The experiment in a line: Inhibition of Cryptosporidium parvum (ELISA, infected HCT-8 monolayers). Format: cell-based. How it is done:
Susceptibility testing against Cryptosporidium was performed according to published procedures (K. Woods, M. Nesterenko, S. Upton, "Development of a microtiter ELISA to quantify development of Cryptosporidium parvum in vitro," FEMS Microbiology Letters, 128:89-94 (1995).
Compounds were solubilized to a concentration of 100 mg/mL in 100% DMSO. DMSO solutions of test compounds were added to the test wells of a microplate at a volume that produced a final concentration of DMSO of 0.2%. Monolayers of human ileocecal adenocarcinoma cells (HCT-8) were prepared by growth in RPMI 1640 medium in 96-Well tissue culture trays for 24 h. Oocysts of C. parvum were allowed to excyst in 10% bleach for 10 min prior to use. Monolayers were then infected with 2-3×10^4 oocysts/well and incubated in the presence or absence of compound for 48 h at 35° C. in 5% CO2 and 95% humidity. Background consisted of wells containing killed oocysts (freeze thaw cycle following 30 sec exposure to liquid nitrogen). Growth control wells were infected with 2-3×10^4 oocysts/well in the absence of test compounds. At the end of incubation, wells were washed and fixed by adding 100 uL of 4% formalin in phosphate buffered saline (pH 7.3) per well for 2 h. After blocking with 1% bovine serum albumin, and 0.002% Tween 20, 50 uL of rat anti-Cryptosporidium membrane protein antiserum was added. After 30 min, wells were washed in PBS and 50 uL of secondary antibody (goat anti-rat antibody conjugated with horseradish peroxidase) was added. After 20-30 min, wells were washed again in PBS and 50 uL of 3,3',5,5'-tetramethylbenzidine solution was added. Plates were allowed to develop for 10-15 min and the optical density was read at 630 nm. Percent inhibition was calculated by comparing the optical density of the drug treated group to that of the untreated control.

The subject of data set [3] is Clostridium difficile ATCC 17857. Nature of the data set: In vitro inhibition of Clostridium difficile (Oxyrase broth microdilution MIC). The class given is cell-based. The conditions noted are these: Clostridioides difficile, ATCC17857; Clostridium difficile ATCC 17857, Oxyrase broth; read-out: MIC, column D, 3(S) compounds. For orientation: In broth dilution the organism is exposed to a series of concentrations in liquid medium.

For data set [4], the system named is Helicobacter pylori. The experiment in a line: In vitro inhibition of Helicobacter pylori (broth microdilution MIC). As to conditions: for MIC: Helicobacter pylori.
Data set [5] has as its system Mycobacterium bovis (rBCG-lux). Nature of the data set: microbe, parasite or virus in culture. Format: cell-based, Mycobacterium bovis bacille Calmette Guerin. As to conditions: Mycobacterium tuberculosis variant bovis, 72 h; read-out: % of control, measured in RLUs.
Data set [6] concerns M. tuberculosis H37 Rv in human THP-1 macrophages. Nature of the data set: In vitro activity against M. tuberculosis in human macrophages (luciferase bioluminescence). The class given is cell-based, Mycobacterium tuberculosis, in human THP-1 cells.
The mark [7] stands for this setting: Cryptosporidium parvum, HCT-8, 25 μg/mL, 48 h, read-out: Percent Inhibition of C. parvum.
The mark [8] stands for this setting: Cryptosporidium parvum, HCT-8, 50 μg/mL, 48 h, read-out: Percent Inhibition of C. parvum.
[9] abbreviates: Cryptosporidium parvum, HCT-8, 100 μg/mL, 48 h, read-out: Percent Inhibition of C. parvum.

Consider `COc1ccc(CO[C@@H]2COc3nc([N+](=O)[O-])cn3C2)cc1` [PA-736], for which the MIC in data set [1] was determined as 8 µg/mL (≈ 26.2 µM). Also, the inhibition at 25 µg/mL in data set [2] (setting [7]) was -3.2%. Moreover, in data set [2] (setting [8]), the inhibition at 50 µg/mL was found to be 3%. Also, the inhibition at 100 µg/mL in data set [2] (setting [9]) worked out at 45%. The inhibition at 200 µg/mL in data set [2] (Cryptosporidium parvum, HCT-8, 200 μg/mL, 48 h, read-out: Percent Inhibition of C. parvum) is 97.7%.
Consider `O=[N+]([O-])c1cn2c(n1)OC[C@@H](OCc1ccc(C(F)(F)F)cc1C(F)(F)F)C2` [PA-646], for which the MIC is below 5 µg/mL in data set [1] and 3.12 µg/mL (≈ 7.59 µM) in data set [3].
On to `O=C(Nc1ccc(Cl)cc1)N[C@@H]1COc2nc([N+](=O)[O-])cn2C1` [PA-1282, 4-Chlorophenyl Urea of 3S 3-Amino-6-nitro-3,4-dihydro-[2-1b]imidazopyran], for which, in data set [1], the MIC is at most 0.002 µg/mL.
In the case of `Cc1ncc([N+](=O)[O-])n1CCO` [Metronidazole, reference compound], the “MICs of control drugs relative to expected values” in data set [4] (H. pylori ATCC 43) is recorded as “within the expected values”. For the same compound, the MIC in data set [4] (72 h, read-out: MIC against Helicobacter pylori, strain 17 (Table 5A)) was found to be 32 µg/mL (≈ 187 µM); in data set [4] (72 h, read-out: MIC against Helicobacter pylori, strain 19 (Table 5A)) it was 0.25 µg/mL (≈ 1.46 µM); in data set [4] (72 h, read-out: MIC against Helicobacter pylori, strain 20 (Table 5A)), 1 µg/mL (≈ 5.84 µM); in data set [4] (72 h, read-out: MIC against Helicobacter pylori, strain 40 (Table 5A)), 0.25 µg/mL (≈ 1.46 µM); in data set [4] (72 h, read-out: MIC against Helicobacter pylori, strain 43 (Table 5A)) it was 0.032 µg/mL (≈ 0.187 µM); in data set [4] (72 h, read-out: MIC against Helicobacter pylori, strain 76 (Table 5A)), 32 µg/mL (≈ 187 µM). Also, the MIC is below 0.5 µg/mL in data set [4] (72 h, read-out: MIC against Helicobacter pylori, strain B40, Met-S, Clar-S (Table 5B)); 8 µg/mL (≈ 46.7 µM) in data set [4] (72 h, read-out: MIC against Helicobacter pylori, strain B76, Met-R, Clar-S (Table 5B)); 16 µg/mL (≈ 93.5 µM) in data set [4] (72 h, read-out: MIC against Helicobacter pylori, strain C1649, Met-R, Clar-R (Table 5B)); below 0.5 µg/mL in data set [4] (72 h, read-out: MIC against Helicobacter pylori, strain C11403, Met-S, Clar-R (Table 5B)); 8 µg/mL (≈ 46.7 µM) in data set [4] (72 h, read-out: MIC against Helicobacter pylori, strain C19765 (Table 5B)); 1 µg/mL (≈ 5.84 µM) in data set [4] (72 h, read-out: MIC against Helicobacter pylori, strain RD26, Met-S, Clar-S (Table 5B)). In addition, the MIC in data set [4] (72 h, read-out: MIC against Helicobacter pylori, strain rd26, Met-S, Clar-S (Table 5B)) is 1 µg/mL (≈ 5.84 µM); in data set [4] (ATCC43504, 72 h, read-out: MIC against Helicobacter pylori, strain ATCC 43504 (Table 5A)), 128 µg/mL (≈ 748 µM); in data set [4] (ATCC43504, 72 h, read-out: MIC against Helicobacter pylori, strain ATCC 43504, Met-R, Clar-S (Table 5B)), 128 to 256 µg/mL (≈ 748 to 1500 µM); in data set [4] (ATCC43526, 72 h, read-out: MIC against Helicobacter pylori, strain ATCC 43526, Met-R, Clar-S (Table 5B)), 16 µg/mL (≈ 93.5 µM); in data set [4] (ATCC43579, 72 h, read-out: MIC against Helicobacter pylori, strain ATCC 43579, Met-S, Clar-S (Table 5B)), 2 µg/mL (≈ 11.7 µM); in data set [4] (ATCC43629, 72 h, read-out: MIC against Helicobacter pylori, strain ATCC 43629, Met-S, Clar-S (Table 5B)), below 0.5 µg/mL.
Consider `COC(C(=O)N[C@@H]1COc2nc([N+](=O)[O-])cn2C1)(c1ccccc1)C(F)(F)F` (stereo partly shown) [PA-1170], for which the “MIC, column A, 3(S) compounds” value in data set [1] turned out to be 0.13. The “Percent Inhibition of C. parvum” value in data set [2] (25 μg/mL, 48 h) is reported as -3%; in data set [2] (50 μg/mL, 48 h), -6%; in data set [2] (100 μg/mL, 48 h), 16%; in data set [2] (200 μg/mL, 48 h), -3.6%.
Regarding `NNC(=O)c1ccncc1` [Isoniazid, reference compound], in data set [5], the activity at 0.15 µg/mL was found to be 158%. In addition, in data set [5], the activity at 0.31 µg/mL was found to be 122%. For the same compound, in data set [5], the activity at 0.62 µg/mL is 110%. For the same compound, in data set [5], the activity at 1.25 µg/mL is 51.1%. In data set [5], the activity at 2.5 µg/mL is 34.1%. Also, in data set [5], the activity at 5 µg/mL was found to be 11.4%. Besides, the RLU values is 20360 RLU in data set [6] (0.03 μg/mL, day 1); 61355 RLU in data set [6] (0.03 μg/mL, day 2); 89528 RLU in data set [6] (0.03 μg/mL, day 3); 68253 RLU in data set [6] (0.03 μg/mL, day 4); 89032 RLU in data set [6] (0.03 μg/mL, day 7); 32192 RLU in data set [6] (0.06 μg/mL, day 1). In addition, the RLU values in data set [6] (0.06 μg/mL, day 2) turned out to be 36680 RLU; in data set [6] (0.06 μg/mL, day 3), 40344 RLU; in data set [6] (0.06 μg/mL, day 4), 27408 RLU; in data set [6] (0.06 μg/mL, day 7), 15855 RLU; in data set [6] (0.13 μg/mL, day 1) it was 31113 RLU; in data set [6] (0.13 μg/mL, day 2), 33898 RLU. Moreover, the RLU values in data set [6] (0.13 μg/mL, day 3) was determined as 36634 RLU; in data set [6] (0.13 μg/mL, day 4) it was 25282 RLU; in data set [6] (0.13 μg/mL, day 7), 13373 RLU.
In the case of `NCC[C@H](O)C(=O)N[C@@H]1C[C@H](N)[C@@H](O[C@H]2O[C@H](CN)[C@@H](O)[C@H](O)[C@H]2O)[C@H](O)[C@H]1O[C@H]1O[C@H](CO)[C@@H](O)[C@H](N)[C@H]1O` [Amikacin], in data set [5], the activity at 0.15 µg/mL is 52.9%, the activity at 0.31 µg/mL was 31.7%, the activity at 0.62 µg/mL was determined as 18.9% and the activity at 1.25 µg/mL was found to be 18.1%. Further, in data set [5], the activity at 2.5 µg/mL was found to be 10.7% and the activity at 5 µg/mL stood at 5.2%.
As to `O=C(Nc1ccc(OC(F)(F)F)cc1)N[C@@H]1COc2nc([N+](=O)[O-])cn2C1` [PA-1298], the MIC in data set [1] was found to be 0.015 µg/mL (≈ 0.0387 µM). Also, in data set [2] (200 μg/mL, HCT-8 monolayers), the “Toxic (given in place of percent inhibition)” value is on record as “Toxic”. For the same compound, the inhibition at 25 µg/mL in data set [2] (setting [7]) worked out at 11.9%. Also, the inhibition at 50 µg/mL in data set [2] (setting [8]) is 30%. The inhibition at 100 µg/mL in data set [2] (setting [9]) was 85%.

One may read the inhibition as the relative decrease from the control value, in per cent.
